From PMC9571063 (Molecules, 2022)

Columns and labels:
Assay in all cases: KINOMEscan
Type in all cases: binding
Conditions in all cases: read-out: Percent Control
SRC = target: T1, SRC (Homo sapiens, UniProt P12931)
T1 construct: purchased Eurofins DiscoverX KINOMEscan (scanMAX 468)

PHKG1 = target: T2, PHKG1 (Homo sapiens, UniProt Q16816)
T2 construct: purchased Eurofins DiscoverX KINOMEscan (scanMAX 468)

PIK3CA(H1047L) = target: T3, PIK3CA(H1047L) (Homo sapiens, UniProt P42336, H1047L)
T3 construct: purchased Eurofins DiscoverX KINOMEscan (scanMAX 468)

[1] = target: T4, RPS6KA4(Kin.Dom.1-N-terminal) (Homo sapiens, UniProt O75676)
T4 construct: RPS6KA4(Kin.Dom.1-N-terminal); purchased Eurofins DiscoverX KINOMEscan (scanMAX 468)
T4 sequence (O75676 1-371 limits assumed): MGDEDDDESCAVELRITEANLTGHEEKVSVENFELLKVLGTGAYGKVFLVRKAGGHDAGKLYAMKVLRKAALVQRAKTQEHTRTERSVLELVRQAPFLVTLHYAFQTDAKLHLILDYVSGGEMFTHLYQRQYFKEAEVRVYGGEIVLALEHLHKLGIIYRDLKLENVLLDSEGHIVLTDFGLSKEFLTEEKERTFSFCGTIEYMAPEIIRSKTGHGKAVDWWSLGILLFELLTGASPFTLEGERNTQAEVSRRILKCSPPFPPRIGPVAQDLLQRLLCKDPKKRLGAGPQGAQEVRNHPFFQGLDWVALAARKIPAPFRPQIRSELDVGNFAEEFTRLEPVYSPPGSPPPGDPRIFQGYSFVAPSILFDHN

PIK3CB = target: T5, PIK3CB (Homo sapiens, UniProt P42338)
T5 construct: purchased Eurofins DiscoverX KINOMEscan (scanMAX 468)

PRKG2 = target: T6, PRKG2 (Homo sapiens, UniProt Q13237)
T6 construct: purchased Eurofins DiscoverX KINOMEscan (scanMAX 468)

SIK2 = target: T7, SIK2 (Homo sapiens, UniProt Q9H0K1)
T7 construct: purchased Eurofins DiscoverX KINOMEscan (scanMAX 468)

NIM1 = target: T8, NIM1 (Homo sapiens, UniProt Q8IY84)
T8 construct: purchased Eurofins DiscoverX KINOMEscan (scanMAX 468)

PRKCE = target: T9, PRKCE (Homo sapiens, UniProt Q02156)
T9 construct: purchased Eurofins DiscoverX KINOMEscan (scanMAX 468)

NEK7 = target: T10, NEK7 (Homo sapiens, UniProt Q8TDX7)
T10 construct: purchased Eurofins DiscoverX KINOMEscan (scanMAX 468)
T10 sequence (Q8TDX7 whole entry): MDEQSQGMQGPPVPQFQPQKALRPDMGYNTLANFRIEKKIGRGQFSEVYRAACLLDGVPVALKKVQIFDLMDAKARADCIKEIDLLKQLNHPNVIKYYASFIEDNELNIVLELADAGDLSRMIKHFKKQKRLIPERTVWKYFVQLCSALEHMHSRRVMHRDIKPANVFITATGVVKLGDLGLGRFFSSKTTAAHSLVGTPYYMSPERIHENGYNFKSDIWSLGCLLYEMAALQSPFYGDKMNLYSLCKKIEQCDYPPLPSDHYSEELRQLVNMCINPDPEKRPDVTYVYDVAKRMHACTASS

FGFR3 = target: T11, FGFR3 (Homo sapiens, UniProt P22607)
T11 construct: purchased Eurofins DiscoverX KINOMEscan (scanMAX 468)

TEC = target: T12, TEC (Homo sapiens, UniProt P42680)
T12 construct: purchased Eurofins DiscoverX KINOMEscan (scanMAX 468)

ERBB4 = target: T13, ERBB4 (Homo sapiens, UniProt Q15303)
T13 construct: purchased Eurofins DiscoverX KINOMEscan (scanMAX 468)

IKK-epsilon = target: T14, IKK-epsilon (Homo sapiens, UniProt Q14164)
T14 construct: purchased Eurofins DiscoverX KINOMEscan (scanMAX 468)
T14 sequence (Q14164 whole entry): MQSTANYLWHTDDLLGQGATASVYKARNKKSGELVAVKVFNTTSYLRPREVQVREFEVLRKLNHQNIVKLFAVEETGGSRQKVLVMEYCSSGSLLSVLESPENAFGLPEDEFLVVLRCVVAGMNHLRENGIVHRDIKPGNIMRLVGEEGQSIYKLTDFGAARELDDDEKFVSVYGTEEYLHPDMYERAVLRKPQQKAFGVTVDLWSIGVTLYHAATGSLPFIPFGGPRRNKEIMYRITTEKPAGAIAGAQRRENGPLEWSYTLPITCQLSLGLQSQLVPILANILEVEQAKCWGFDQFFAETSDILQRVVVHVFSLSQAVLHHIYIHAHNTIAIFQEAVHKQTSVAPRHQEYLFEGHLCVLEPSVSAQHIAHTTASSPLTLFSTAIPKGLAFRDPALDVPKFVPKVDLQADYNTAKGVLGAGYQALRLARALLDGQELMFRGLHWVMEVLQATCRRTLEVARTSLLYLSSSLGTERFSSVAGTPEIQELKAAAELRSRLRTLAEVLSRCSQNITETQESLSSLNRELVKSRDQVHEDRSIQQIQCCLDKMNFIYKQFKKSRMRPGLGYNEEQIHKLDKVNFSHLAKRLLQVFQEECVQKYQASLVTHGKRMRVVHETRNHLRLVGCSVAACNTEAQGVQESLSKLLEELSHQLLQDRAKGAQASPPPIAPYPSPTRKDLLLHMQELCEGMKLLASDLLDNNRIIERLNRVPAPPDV

MKNK2 = target: T15, MKNK2 (Homo sapiens, UniProt Q9HBH9)
T15 construct: purchased Eurofins DiscoverX KINOMEscan (scanMAX 468)

TTK = target: T16, TTK (Homo sapiens, UniProt P33981)
T16 construct: purchased Eurofins DiscoverX KINOMEscan (scanMAX 468)

CDK3 = target: T17, CDK3 (Homo sapiens, UniProt Q00526)
T17 construct: purchased Eurofins DiscoverX KINOMEscan (scanMAX 468)
T17 sequence (Q00526 whole entry): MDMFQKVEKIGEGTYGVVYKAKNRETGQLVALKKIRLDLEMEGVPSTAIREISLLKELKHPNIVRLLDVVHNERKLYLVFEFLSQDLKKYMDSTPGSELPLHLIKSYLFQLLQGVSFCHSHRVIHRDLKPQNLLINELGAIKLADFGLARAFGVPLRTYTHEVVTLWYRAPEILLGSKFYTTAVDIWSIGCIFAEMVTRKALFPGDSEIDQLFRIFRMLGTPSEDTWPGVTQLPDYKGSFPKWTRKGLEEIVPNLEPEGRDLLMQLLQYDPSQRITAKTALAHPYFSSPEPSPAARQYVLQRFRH

ERBB2 = target: T18, ERBB2 (Homo sapiens, UniProt P04626)
T18 construct: purchased Eurofins DiscoverX KINOMEscan (scanMAX 468)

GAK = target: T19, GAK (Homo sapiens, UniProt O14976)
T19 construct: purchased Eurofins DiscoverX KINOMEscan (scanMAX 468)

BRSK1 = target: T20, BRSK1 (Homo sapiens, UniProt Q8TDC3)
T20 construct: purchased Eurofins DiscoverX KINOMEscan (scanMAX 468)
T20 sequence (Q8TDC3 whole entry): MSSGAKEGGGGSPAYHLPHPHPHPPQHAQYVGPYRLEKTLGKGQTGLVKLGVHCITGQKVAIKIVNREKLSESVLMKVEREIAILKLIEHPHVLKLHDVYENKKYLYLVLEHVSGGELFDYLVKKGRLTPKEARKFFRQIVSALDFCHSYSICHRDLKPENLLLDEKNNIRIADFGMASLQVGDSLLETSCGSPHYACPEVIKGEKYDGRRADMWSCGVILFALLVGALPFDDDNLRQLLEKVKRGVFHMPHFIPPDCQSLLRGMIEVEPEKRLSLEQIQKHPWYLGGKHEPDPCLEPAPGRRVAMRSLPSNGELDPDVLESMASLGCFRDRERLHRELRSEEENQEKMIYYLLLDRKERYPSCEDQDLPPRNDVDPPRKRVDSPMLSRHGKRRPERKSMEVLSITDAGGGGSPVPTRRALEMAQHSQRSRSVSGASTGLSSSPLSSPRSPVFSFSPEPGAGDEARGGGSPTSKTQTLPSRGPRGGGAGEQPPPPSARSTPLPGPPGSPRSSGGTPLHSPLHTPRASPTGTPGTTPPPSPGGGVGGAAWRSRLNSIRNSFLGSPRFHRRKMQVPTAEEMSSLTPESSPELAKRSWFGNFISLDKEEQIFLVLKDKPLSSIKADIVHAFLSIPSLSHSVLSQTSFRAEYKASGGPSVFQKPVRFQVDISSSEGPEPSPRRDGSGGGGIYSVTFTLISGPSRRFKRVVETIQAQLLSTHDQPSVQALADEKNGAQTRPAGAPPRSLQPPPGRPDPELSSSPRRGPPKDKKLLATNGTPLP

RET(M918T) = target: T21, RET(M918T) (Homo sapiens, UniProt P07949, M918T)
T21 construct: purchased Eurofins DiscoverX KINOMEscan (scanMAX 468)

PAK1 = target: T22, PAK1 (Homo sapiens, UniProt Q13153)
T22 construct: purchased Eurofins DiscoverX KINOMEscan (scanMAX 468)

BRAF(V600E) = target: T23, BRAF(V600E) (Homo sapiens, UniProt P15056, V600E)
T23 construct: purchased Eurofins DiscoverX KINOMEscan (scanMAX 468)

LIMK1 = target: T24, LIMK1 (Homo sapiens, UniProt P53667)
T24 construct: purchased Eurofins DiscoverX KINOMEscan (scanMAX 468)
T24 sequence (P53667 whole entry): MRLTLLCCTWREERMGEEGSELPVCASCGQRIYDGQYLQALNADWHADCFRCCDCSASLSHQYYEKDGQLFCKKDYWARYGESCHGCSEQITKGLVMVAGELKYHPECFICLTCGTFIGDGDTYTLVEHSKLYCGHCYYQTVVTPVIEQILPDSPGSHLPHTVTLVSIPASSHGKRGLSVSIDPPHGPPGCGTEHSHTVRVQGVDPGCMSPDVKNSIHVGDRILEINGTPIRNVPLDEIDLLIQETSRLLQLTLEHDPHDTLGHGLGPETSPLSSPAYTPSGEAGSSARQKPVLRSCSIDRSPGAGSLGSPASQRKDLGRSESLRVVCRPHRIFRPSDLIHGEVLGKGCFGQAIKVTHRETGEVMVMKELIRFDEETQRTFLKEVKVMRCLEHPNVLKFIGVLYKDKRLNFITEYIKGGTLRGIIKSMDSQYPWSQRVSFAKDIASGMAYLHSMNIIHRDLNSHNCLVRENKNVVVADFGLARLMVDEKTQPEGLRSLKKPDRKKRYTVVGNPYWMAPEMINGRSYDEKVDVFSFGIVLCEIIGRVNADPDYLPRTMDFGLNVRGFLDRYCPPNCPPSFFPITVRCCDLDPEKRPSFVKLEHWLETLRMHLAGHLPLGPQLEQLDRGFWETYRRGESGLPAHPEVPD

AURKC = target: T25, AURKC (Homo sapiens, UniProt Q9UQB9)
T25 construct: purchased Eurofins DiscoverX KINOMEscan (scanMAX 468)

PIK3CD = target: T26, PIK3CD (Homo sapiens, UniProt O00329)
T26 construct: purchased Eurofins DiscoverX KINOMEscan (scanMAX 468)

PRKD1 = target: T27, PRKD1 (Homo sapiens, UniProt Q15139)
T27 construct: purchased Eurofins DiscoverX KINOMEscan (scanMAX 468)

EPHA2 = target: T28, EPHA2 (Homo sapiens, UniProt P29317)
T28 construct: purchased Eurofins DiscoverX KINOMEscan (scanMAX 468)

PIK3CG = target: T29, PIK3CG (Homo sapiens, UniProt P48736)
T29 construct: purchased Eurofins DiscoverX KINOMEscan (scanMAX 468)

KIT(D816V) = target: T30, KIT(D816V) (Homo sapiens, UniProt P10721, D816V)
T30 construct: purchased Eurofins DiscoverX KINOMEscan (scanMAX 468)

[2] = target: T31, ABL1(F317L)-phosphorylated (Homo sapiens, UniProt P00519, F317L)
T31 construct: purchased Eurofins DiscoverX KINOMEscan (scanMAX 468)

KIT(D816H) = target: T32, KIT(D816H) (Homo sapiens, UniProt P10721, D816H)
T32 construct: purchased Eurofins DiscoverX KINOMEscan (scanMAX 468)

PAK6 = target: T33, PAK6 (Homo sapiens, UniProt Q9NQU5)
T33 construct: purchased Eurofins DiscoverX KINOMEscan (scanMAX 468)

NEK1 = target: T34, NEK1 (Homo sapiens, UniProt Q96PY6)
T34 construct: purchased Eurofins DiscoverX KINOMEscan (scanMAX 468)

LZK = target: T35, LZK (Homo sapiens, UniProt O43283)
T35 construct: purchased Eurofins DiscoverX KINOMEscan (scanMAX 468)
T35 sequence (O43283 whole entry): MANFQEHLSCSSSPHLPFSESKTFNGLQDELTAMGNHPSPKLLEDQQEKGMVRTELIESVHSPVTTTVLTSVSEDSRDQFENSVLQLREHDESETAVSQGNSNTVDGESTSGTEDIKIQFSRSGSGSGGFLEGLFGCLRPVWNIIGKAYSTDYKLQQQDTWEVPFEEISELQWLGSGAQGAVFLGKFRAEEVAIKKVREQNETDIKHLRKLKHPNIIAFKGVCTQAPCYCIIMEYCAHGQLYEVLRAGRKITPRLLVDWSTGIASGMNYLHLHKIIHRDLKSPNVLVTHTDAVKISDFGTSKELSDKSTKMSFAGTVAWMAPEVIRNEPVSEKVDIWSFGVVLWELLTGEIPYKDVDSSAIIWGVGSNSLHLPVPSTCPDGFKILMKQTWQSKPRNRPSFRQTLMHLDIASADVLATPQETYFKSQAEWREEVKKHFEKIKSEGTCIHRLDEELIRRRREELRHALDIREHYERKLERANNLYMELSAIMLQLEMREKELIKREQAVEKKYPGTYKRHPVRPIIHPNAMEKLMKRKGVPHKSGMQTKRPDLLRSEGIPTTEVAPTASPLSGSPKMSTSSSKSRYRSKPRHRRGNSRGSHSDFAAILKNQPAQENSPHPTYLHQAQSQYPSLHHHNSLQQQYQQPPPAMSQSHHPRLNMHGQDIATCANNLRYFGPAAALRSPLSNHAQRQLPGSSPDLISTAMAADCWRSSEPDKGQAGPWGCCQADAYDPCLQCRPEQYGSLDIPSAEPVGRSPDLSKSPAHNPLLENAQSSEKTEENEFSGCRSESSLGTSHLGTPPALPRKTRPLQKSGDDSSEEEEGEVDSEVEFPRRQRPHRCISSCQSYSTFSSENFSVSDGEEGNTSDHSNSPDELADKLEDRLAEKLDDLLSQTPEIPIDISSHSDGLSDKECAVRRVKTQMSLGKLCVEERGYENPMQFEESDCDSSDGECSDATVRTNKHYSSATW

KIT(L576P) = target: T36, KIT(L576P) (Homo sapiens, UniProt P10721, L576P)
T36 construct: purchased Eurofins DiscoverX KINOMEscan (scanMAX 468)

NEK10 = target: T37, NEK10 (Homo sapiens, UniProt Q6ZWH5)
T37 construct: purchased Eurofins DiscoverX KINOMEscan (scanMAX 468)

HIPK3 = target: T38, HIPK3 (Homo sapiens, UniProt Q9H422)
T38 construct: purchased Eurofins DiscoverX KINOMEscan (scanMAX 468)

BMPR1A = target: T39, BMPR1A (Homo sapiens, UniProt P36894)
T39 construct: purchased Eurofins DiscoverX KINOMEscan (scanMAX 468)

[3] = target: T40, JAK1(JH1domain-catalytic) (Homo sapiens, UniProt P23458)
T40 construct: JAK1(JH1domain-catalytic); purchased Eurofins DiscoverX KINOMEscan (scanMAX 468)
T40 sequence (P23458 865-1154 limits assumed): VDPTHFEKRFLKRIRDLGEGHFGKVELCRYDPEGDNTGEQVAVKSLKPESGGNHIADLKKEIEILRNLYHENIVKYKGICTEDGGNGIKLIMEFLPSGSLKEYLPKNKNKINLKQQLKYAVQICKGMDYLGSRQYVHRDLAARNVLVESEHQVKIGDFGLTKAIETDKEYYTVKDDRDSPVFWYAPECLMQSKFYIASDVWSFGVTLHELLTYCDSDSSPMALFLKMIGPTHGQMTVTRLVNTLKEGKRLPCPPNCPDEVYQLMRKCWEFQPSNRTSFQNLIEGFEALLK

NLK = target: T41, NLK (Homo sapiens, UniProt Q9UBE8)
T41 construct: purchased Eurofins DiscoverX KINOMEscan (scanMAX 468)

LRRK2(G2019S) = target: T42, LRRK2(G2019S) (Homo sapiens, UniProt Q5S007, G2019S)
T42 construct: purchased Eurofins DiscoverX KINOMEscan (scanMAX 468)

T1 sequence (P12931 whole entry): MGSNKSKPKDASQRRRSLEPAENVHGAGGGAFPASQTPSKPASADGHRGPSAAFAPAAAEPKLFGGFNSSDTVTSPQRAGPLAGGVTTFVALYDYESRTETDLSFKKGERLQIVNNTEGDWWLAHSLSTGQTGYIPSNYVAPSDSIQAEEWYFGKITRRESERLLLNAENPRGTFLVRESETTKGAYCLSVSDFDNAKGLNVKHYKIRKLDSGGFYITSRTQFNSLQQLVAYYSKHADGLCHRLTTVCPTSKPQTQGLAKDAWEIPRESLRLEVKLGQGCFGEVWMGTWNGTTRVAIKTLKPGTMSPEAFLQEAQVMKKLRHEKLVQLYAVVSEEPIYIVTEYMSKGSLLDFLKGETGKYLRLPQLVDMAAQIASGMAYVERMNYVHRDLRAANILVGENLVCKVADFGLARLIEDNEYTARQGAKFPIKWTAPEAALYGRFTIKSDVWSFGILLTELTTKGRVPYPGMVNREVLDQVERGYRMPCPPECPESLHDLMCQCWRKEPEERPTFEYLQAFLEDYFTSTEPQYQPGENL

Cc1ccc(-n2cc(COc3cccc4cnc(Nc5cccc(Cl)c5)nc34)nn2)c([N+](=O)[O-])c1 [DB18]
remaining binding at 1 µM (SRC): 100% | remaining binding at 1 µM (PHKG1): 100% | remaining binding at 1 µM (PIK3CA(H1047L)): 100% | remaining binding at 1 µM [1]: 100% | remaining binding at 1 µM (PIK3CB): 100% | remaining binding at 1 µM (PRKG2): 100% | remaining binding at 1 µM (SIK2): 100% | remaining binding at 1 µM (NIM1): 100% | remaining binding at 1 µM (PRKCE): 100% | remaining binding at 1 µM (NEK7): 85% | remaining binding at 1 µM (FGFR3): 100% | remaining binding at 1 µM (TEC): 100% | remaining binding at 1 µM (ERBB4): 100% | remaining binding at 1 µM (IKK-epsilon): 96% | remaining binding at 1 µM (MKNK2): 100% | remaining binding at 1 µM (TTK): 86% | remaining binding at 1 µM (CDK3): 100% | remaining binding at 1 µM (ERBB2): 57% | remaining binding at 1 µM (GAK): 100% | remaining binding at 1 µM (BRSK1): 100% | remaining binding at 1 µM (RET(M918T)): 100% | remaining binding at 1 µM (PAK1): 100% | remaining binding at 1 µM (BRAF(V600E)): 96% | remaining binding at 1 µM (LIMK1): 100% | remaining binding at 1 µM (AURKC): 100% | remaining binding at 1 µM (PIK3CD): 100% | remaining binding at 1 µM (PRKD1): 100% | remaining binding at 1 µM (EPHA2): 100% | remaining binding at 1 µM (PIK3CG): 62% | remaining binding at 1 µM (KIT(D816V)): 100% | remaining binding at 1 µM [2]: 100% | remaining binding at 1 µM (KIT(D816H)): 100% | remaining binding at 1 µM (PAK6): 100% | remaining binding at 1 µM (NEK1): 100% | remaining binding at 1 µM (LZK): 100% | remaining binding at 1 µM (KIT(L576P)): 100% | remaining binding at 1 µM (NEK10): 100% | remaining binding at 1 µM (HIPK3): 46% | remaining binding at 1 µM (BMPR1A): 68% | remaining binding at 1 µM [3]: 100% | remaining binding at 1 µM (NLK): 87% | remaining binding at 1 µM (LRRK2(G2019S)): 95%
